Experimental data published in PubChem BioAssay AID210 (DTP/NCI, 2004).
Where “and” joins values, the source holds several entries; their conditions need not be identical. Equal entries are not always repeated. Inconclusive results and toxic doses are left out. How the source made its calls: active means survival T/C of 150% or more; inactive means T/C below 125% in these data.

System: CD2F1 mice, ip Colon 26 adenocarcinoma, median survival T/C
Assay: NCI In Vivo Anticancer Drug Screen. Data for tumor model Colon 26 Adenocarcinoma (intraperitoneal) in CD2F1 (CDF1) mice
Conditions: endpoint: median survival time, higher = longer survival
Procedure: The antitumor activity of compounds was measured in mice bearing transplantable tumors. Survival or tumor size were measured and the results are expressed as the measurement made in the treated group (T) divided by the measurement made in the vehicle treated control group (C). The tumor model used in this assay is Colon 26 Adenocarcinoma (intraperitoneal) in CD2F1 (CDF1) mice

[1] = dose: 25.0 mg/kg/injection, schedule: Q04DX003 (ip), vehicle: Klucel (hydroxypropylcellulose) (HPC)
[2] = dose: 50.0 mg/kg/injection, schedule: Q04DX003 (ip), vehicle: Klucel (hydroxypropylcellulose) (HPC)
[3] = dose: 100.0 mg/kg/injection, schedule: Q04DX003 (ip), vehicle: Klucel (hydroxypropylcellulose) (HPC)
[4] = dose: 200.0 mg/kg/injection, schedule: Q04DX003 (ip), vehicle: Klucel (hydroxypropylcellulose) (HPC)
[5] = dose: 12.5 mg/kg/injection, schedule: Q04DX003 (ip), vehicle: Klucel (hydroxypropylcellulose) (HPC)
[6] = dose: 8.0 mg/kg/injection, schedule: Q04DX002 (ip), vehicle: Klucel (hydroxypropylcellulose) (HPC)
[7] = dose: 16.0 mg/kg/injection, schedule: Q04DX002 (ip), vehicle: Klucel (hydroxypropylcellulose) (HPC)

Measured: T/C

NC(=O)c1[nH]nc(C2OC(CO)C(O)C2O)c1O (configuration not stated)
inactive: dose: 2.59 mg/kg/injection, schedule: Q04DX003 (ip), vehicle: saline 115 % of control | dose: 4.32 mg/kg/injection, schedule: Q04DX003 (ip), vehicle: saline 107 % of control | dose: 7.2 mg/kg/injection, schedule: Q04DX003 (ip), vehicle: saline 123 % of control | dose: 12.0 mg/kg/injection, schedule: Q04DX003 (ip), vehicle: saline 118 % of control | dose: 20.0 mg/kg/injection, schedule: Q04DX003 (ip), vehicle: saline 90 % of control

C#C[C@]1(O)CC[C@H]2[C@@H]3CCc4cc(O)ccc4[C@H]3CC[C@@]21C
inactive: [1] 103 % of control | [2] 100 % of control | [3] 96 % of control | [4] 90 % of control | dose: 400.0 mg/kg/injection, schedule: Q04DX003 (ip), vehicle: Klucel (hydroxypropylcellulose) (HPC) 86 % of control

CC1=CCCC(C)(O)C2CC(CCC3(C)OC3CC1)C(C)C(=O)O2 (configuration not stated)
inactive: dose: 22.5 mg/kg/injection, schedule: Q04DX002 (ip), vehicle: Klucel (hydroxypropylcellulose) (HPC) 98 % of control | dose: 45.0 mg/kg/injection, schedule: Q04DX002 (ip), vehicle: Klucel (hydroxypropylcellulose) (HPC) 100 % of control | dose: 90.0 mg/kg/injection, schedule: Q04DX002 (ip), vehicle: Klucel (hydroxypropylcellulose) (HPC) 100 % of control | dose: 180.0 mg/kg/injection, schedule: Q04DX002 (ip), vehicle: Klucel (hydroxypropylcellulose) (HPC) 102 % of control

CC(CN1CC(=O)NC(=O)C1)N1CC(=O)NC(=O)C1 (configuration not stated)
inactive: [5] 100 % of control | [1] 98 % of control | [2] 102 % of control

NC(Cc1ccc(N(CCCl)CCCl)cc1)C(=O)O (configuration not stated)
active: dose: 2.0 mg/kg/injection, schedule: Q04DX002 (ip), vehicle: Klucel (hydroxypropylcellulose) (HPC) 168 % of control | dose: 4.0 mg/kg/injection, schedule: Q04DX002 (ip), vehicle: Klucel (hydroxypropylcellulose) (HPC) 253 % of control | [6] 245 % of control | [7] 156 % of control

COc1cccc2c1C(=O)c1c(O)c3c(c(O)c1C2=O)C[C@@](O)(/C(CO)=N/NC(=O)c1ccc(Cl)c(Cl)c1)C[C@@H]3OC1CC(N)C(O)C(C)O1 (some centres not stated)
inactive: dose: 16.0 mg/kg/injection, schedule: Q07DX002 (iv), vehicle: saline 92 % of control | dose: 24.0 mg/kg/injection, schedule: Q07DX002 (iv), vehicle: saline 109 % of control | dose: 36.0 mg/kg/injection, schedule: Q07DX002 (iv), vehicle: saline 103 % of control

Cc1[nH]c(=O)[nH]c(=O)c1N(CCF)CCCl
inactive: [6] 111 % of control and 112 % of control | [7] 114 % of control and 121 % of control | dose: 32.0 mg/kg/injection, schedule: Q04DX002 (ip), vehicle: Klucel (hydroxypropylcellulose) (HPC) 122 % of control

CNCCNc1ccc(NCCNC)c2c1C(=O)c1ccccc1C2=O
active: dose: 1.0 mg/kg/injection, schedule: Q01DX009 (ip), vehicle: acid diluted with saline 154 % of control | dose: 1.5 mg/kg/injection, schedule: Q01DX009 (ip), vehicle: acid diluted with saline 205 % of control | dose: 2.0 mg/kg/injection, schedule: Q01DX009 (ip), vehicle: acid diluted with saline 219 % of control | dose: 3.0 mg/kg/injection, schedule: Q01DX009 (ip), vehicle: acid diluted with saline 236 % of control | dose: 4.0 mg/kg/injection, schedule: Q01DX009 (ip), vehicle: acid diluted with saline 215 % of control | dose: 6.0 mg/kg/injection, schedule: Q01DX009 (ip), vehicle: acid diluted with saline 226 % of control | dose: 8.0 mg/kg/injection, schedule: Q01DX009 (ip), vehicle: acid diluted with saline 225 % of control | dose: 12.0 mg/kg/injection, schedule: Q01DX009 (ip), vehicle: acid diluted with saline 236 % of control
inactive: dose: 16.0 mg/kg/injection, schedule: Q01DX009 (ip), vehicle: acid diluted with saline 115 % of control

O=c1c(O)c(-c2ccc(O)c(O)c2)oc2cc(O)cc(O)c12
inactive: dose: 100.0 mg/kg/injection, schedule: Q04DX003 (ip), vehicle: other 89 % of control | dose: 800.0 mg/kg/injection, schedule: Q04DX003 (ip), vehicle: other 87 % of control

S=c1nc[nH]c2nc[nH]c12
active: [2] 191 % of control and 252 % of control | [3] 171 % of control
inactive: dose: 6.25 mg/kg/injection, schedule: Q04DX003 (ip), vehicle: Klucel (hydroxypropylcellulose) (HPC) 115 % of control | [5] 110 % of control | [4] 86 % of control

C[C@]12CCC(=O)C=C1CC[C@@H]1[C@@H]2[C@@H](O)C[C@@]2(C)[C@H]1CC[C@]2(O)C(=O)CO
inactive: dose: 40.0 mg/kg/injection, schedule: Q04DX003 (ip), vehicle: Klucel (hydroxypropylcellulose) (HPC) 102 % of control | dose: 80.0 mg/kg/injection, schedule: Q04DX003 (ip), vehicle: Klucel (hydroxypropylcellulose) (HPC) 100 % of control | dose: 160.0 mg/kg/injection, schedule: Q04DX003 (ip), vehicle: Klucel (hydroxypropylcellulose) (HPC) 102 % of control | dose: 320.0 mg/kg/injection, schedule: Q04DX003 (ip), vehicle: Klucel (hydroxypropylcellulose) (HPC) 102 % of control | dose: 640.0 mg/kg/injection, schedule: Q04DX003 (ip), vehicle: Klucel (hydroxypropylcellulose) (HPC) 96 % of control

COc1cccc2c1C(=O)c1c(O)c3c(c(O)c1C2=O)C[C@@](O)(/C(C)=N\NC(=O)CO)C[C@@H]3OC1CC(N)C(O)C(C)O1 (some centres not stated)
inactive: dose: 4.5 mg/kg/injection, schedule: Q07DX003 (iv), vehicle: other 104 % of control | dose: 7.0 mg/kg/injection, schedule: Q07DX003 (iv), vehicle: other 101 % of control | dose: 11.0 mg/kg/injection, schedule: Q07DX003 (iv), vehicle: other 108 % of control | dose: 17.0 mg/kg/injection, schedule: Q07DX003 (iv), vehicle: other 104 % of control

CC(=O)OCC(=O)[C@@]12OC(C)(C)O[C@@H]1C[C@H]1[C@@H]3CC(C=O)=C4C=C(OCCCl)CC[C@]4(C)[C@@]3(F)[C@@H](O)C[C@@]12C
inactive: dose: 0.39 mg/kg/injection, schedule: Q04DX002 (ip), vehicle: Klucel (hydroxypropylcellulose) (HPC) 94 % of control | dose: 0.78 mg/kg/injection, schedule: Q04DX002 (ip), vehicle: Klucel (hydroxypropylcellulose) (HPC) 89 % of control | dose: 1.56 mg/kg/injection, schedule: Q04DX002 (ip), vehicle: Klucel (hydroxypropylcellulose) (HPC) 93 % of control | dose: 3.13 mg/kg/injection, schedule: Q04DX002 (ip), vehicle: Klucel (hydroxypropylcellulose) (HPC) 95 % of control | dose: 6.25 mg/kg/injection, schedule: Q04DX002 (ip), vehicle: Klucel (hydroxypropylcellulose) (HPC) 91 % of control | dose: 12.5 mg/kg/injection, schedule: Q04DX002 (ip), vehicle: Klucel (hydroxypropylcellulose) (HPC) 88 % of control

Nc1ncnc2nc[nH]c12
inactive: dose: 64.0 mg/kg/injection, schedule: Q04DX002 (ip), vehicle: Klucel (hydroxypropylcellulose) (HPC) 97 % of control | dose: 128.0 mg/kg/injection, schedule: Q04DX002 (ip), vehicle: Klucel (hydroxypropylcellulose) (HPC) 91 % of control | dose: 256.0 mg/kg/injection, schedule: Q04DX002 (ip), vehicle: Klucel (hydroxypropylcellulose) (HPC) 95 % of control | dose: 512.0 mg/kg/injection, schedule: Q04DX002 (ip), vehicle: Klucel (hydroxypropylcellulose) (HPC) 94 % of control
